Experimental data reported in patent US20230277569A1, “Compositions and Methods for Treating, Ameliorating and/or Preventing Cancer and Kits for the Same” (priority 2022, published 2023).
Entries after “also recorded” stand apart in the source; their conditions may differ. Where two headings read alike, the source gives them in different places.

How the values were obtained:
CYP2A6 = CYP2A6 (Homo sapiens, UniProt P11509); assay: CYP inhibition in liver microsomes, CYP2A6; assay type: in vitro ADME; conditions: human liver microsomes 0.1 mg/mL
Method: After addition of prototypical CYP substrates in 250 μL, samples were incubated for 10 min (CYP1A2, CYP2B6, CYP2C9, and CYP3A4) or 20 min (CYP2C8) at 37° C. in 5% CO2. […] Samples were analyzed for metabolite formation by LC-MS/MS. The results were expressed using the peak area ratio of analyte to internal standard, based on the calibration curves.
where Range=fitted uninhibited value, s=slope factor, x=inhibitor concentration, y=% control activity.

hERG = molecular target: T1, hERG (Homo sapiens, UniProt Q12809); assay: Ion channel screening, hERG; assay type: cell-based; conditions: n=16, read-out: inhibition of hERG currents (ion channel screening)
T1 construct: expressed in transfected cells; host or cells: HEK293 (ATCC), polyclonal, stably transfected, G418 selection
Text: (§2) The parameter measured was the maximum outward current evoked on stepping to +60 mV from the holding potential of −80 mV. hERG currents were evoked by a three-pulse protocol where voltage was first stepped to +40 mV for two sec from a holding potential of −80 mV to inactivate hERG channels. The voltage is then stepped back to −50 mV for two sec to evoke a tail current prior to returning to the holding potential for 1 sec. The parameter measured was the amplitude of the 3rd pulse tail current upon stepping back to −50 mV after the step to +40 mV. Human HCN4 currents were evoked by a single pulse from a holding potential of −30 mV to a potential of −110 mV for 4 sec prior to returning to −30 mV. The parameter measured was the maximum inward current evoked upon stepping to −110 mV from the holding potential of −30 mV. Human Kir2.1 currents were evoked from a holding potential of −20 mV by a series of 10 500 msec pulses to −120 mV using a 200 msec interval between pulses. The parameters measured were the amplitudes of the instantaneous inward currents evoked on stepping to −120 mV for the 1st pulse and the maximum inward current at the end of the 10th hyperpolarizing pulse. For all experiments, data were filtered for seal quality, seal drop, and current amplitude.

Human HCN4 = Human HCN4 (Homo sapiens, UniProt Q9Y3Q4); assay: Ion channel screening, HCN4; assay type: cell-based; conditions: n=16, read-out: inhibition of HCN4 currents
Text: as §2

[1] = Toxicity and toxicokinetics in rats, IV twice weekly for 29 d; assay type: in vivo, Sprague-Dawley rats; conditions: Sprague-Dawley, rat; for Cmax / AUC(0-t): plasma, iv, rats; for AUC(0-t): read-out: AUC0-24
Method: (§1) Ninety-six male and female Sprague-Dawley rats (6-7 weeks old) were received from Charles River Laboratories, (Raleigh, N.C.) and catheterized via a femoral vein prior to arrival. Animals were acclimated in individual stainless-steel cages with access to water and Certified Rodent Diet #2014C (Envigo RMS) ad libitum for 6 d prior to study initiation. Environmental controls were set to maintain a temperature range of 20 to 26° C., a relative humidity range of 30 to 70%, eight or greater air changes/h, and a 12-h light/dark cycle. Animals were infused with sterile isotonic (0.9%) saline for a minimum of 4 d (0.20 mL/h for males or 0.15 mL/h for females) during the predose phase. At initiation of dosing, animals were 8 to 9 weeks old, and body weights ranged from 283 to 341 g for males and 188 to 238 g for females. Gamitrinib formulated as indicated above was administered by IV infusion on d […], 8, 11, 15, 18, 22, 25, and 29 of the dosing phase at 1, 10, 25 mg/kg/dose and dose volume of 5 mL/kg. The vehicle control administered with the same schedule contained 2.5% DMSO, 0.125% polysorbate 80, 0.031% lecithin, 1.25% sucrose and 4.375% dextrose. Animals were checked twice daily throughout the duration of the study for mortality, abnormalities, and signs of pain or distress. Detailed observations were conducted for each animal up to two times during the predose phase and for each toxicity animal prior to dosing on d 1, 8, 15, 22, and 29 of the dosing phase and on d 1, 7, and 14 of the recovery phase. Blood samples were collected on d. 1, 4 and 29 of the dosing phase 5 min, 1 h and 24 h post-dose, maintained on chilled cryoracks and centrifuged within 1 h of collection. Tissue samples harvested from each animal were embedded in paraffin, sectioned, and slides were prepared and stained with hematoxylin and eosin.

Sprague-Dawley rats = assay: as above; assay type: in vivo; conditions: for reduction in mean body weights: male rats
Method: as §1

beagle dogs = assay: Electrocardiography studies in beagle dogs; assay type: in vivo
Method: At each time point, eight-lead ECGs were continuously recorded for at least 30 sec. At least five consecutive ECG waveforms and the associated RR intervals deemed most representative were selected for quantitative analysis at each time point. The ECG interval measurements (PR, QRS, QT, QTc, RR, and heart rate) were made on a single lead. The measured waveforms at each time point were averaged and reported. The QTc interval was calculated using the Fridericia (QT/[RR]^1/3) method. The RR interval was used to derive the heart rate and in QT interval correction. Qualitative assessments included normal sinus rhythm variations, abnormal sinus rhythms, conductance or repolarization abnormalities, bradycardia, and tachycardia. Group comparisons of ECG data (PR, QRS, QT, QTc, and heart rate) were analyzed using ANOVA.

tumor cells = conditions: in culture; read-out: IC50 tumor cell killing; cited from earlier work
NCI 60 cell lines = conditions: NCI 60 cell line screen; read-out: IC50 anticancer activity; cited from earlier work
[2] = Phase I, cytochrome P450-mediated human liver microsome metabolism
[3] = 1 mg/kg/dose (NOAEL), d 29 of dosing

Sequence of Human HCN4 (Q9Y3Q4 whole entry): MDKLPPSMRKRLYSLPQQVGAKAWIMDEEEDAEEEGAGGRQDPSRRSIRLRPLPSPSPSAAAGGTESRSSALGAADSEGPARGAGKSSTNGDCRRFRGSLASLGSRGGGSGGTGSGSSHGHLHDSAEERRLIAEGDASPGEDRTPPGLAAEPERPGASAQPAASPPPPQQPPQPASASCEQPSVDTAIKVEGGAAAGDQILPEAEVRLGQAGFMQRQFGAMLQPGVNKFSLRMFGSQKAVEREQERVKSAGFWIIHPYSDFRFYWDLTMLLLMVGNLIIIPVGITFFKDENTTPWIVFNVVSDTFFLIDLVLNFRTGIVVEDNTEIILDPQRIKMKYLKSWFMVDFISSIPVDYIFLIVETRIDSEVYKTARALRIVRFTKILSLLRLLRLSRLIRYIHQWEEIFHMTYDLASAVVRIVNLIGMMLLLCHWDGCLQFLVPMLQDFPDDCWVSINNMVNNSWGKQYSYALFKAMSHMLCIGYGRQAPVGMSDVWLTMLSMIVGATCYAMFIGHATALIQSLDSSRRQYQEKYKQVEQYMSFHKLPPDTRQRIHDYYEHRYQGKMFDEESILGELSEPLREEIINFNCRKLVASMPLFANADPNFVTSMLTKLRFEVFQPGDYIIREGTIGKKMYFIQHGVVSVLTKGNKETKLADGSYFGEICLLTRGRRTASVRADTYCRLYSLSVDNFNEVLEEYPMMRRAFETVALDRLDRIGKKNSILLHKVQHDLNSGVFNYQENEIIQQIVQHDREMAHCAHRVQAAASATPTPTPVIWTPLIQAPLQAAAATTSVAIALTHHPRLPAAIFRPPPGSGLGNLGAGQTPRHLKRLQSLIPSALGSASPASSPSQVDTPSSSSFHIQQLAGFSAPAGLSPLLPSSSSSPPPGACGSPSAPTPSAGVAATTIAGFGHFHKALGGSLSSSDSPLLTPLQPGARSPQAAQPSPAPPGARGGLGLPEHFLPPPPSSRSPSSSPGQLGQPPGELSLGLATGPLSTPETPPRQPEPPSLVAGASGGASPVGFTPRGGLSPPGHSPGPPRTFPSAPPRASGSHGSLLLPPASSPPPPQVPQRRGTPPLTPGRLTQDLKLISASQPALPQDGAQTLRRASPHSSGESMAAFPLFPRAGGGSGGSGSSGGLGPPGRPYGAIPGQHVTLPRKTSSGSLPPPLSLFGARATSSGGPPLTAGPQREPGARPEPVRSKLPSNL
T1 sequence (Q12809 whole entry): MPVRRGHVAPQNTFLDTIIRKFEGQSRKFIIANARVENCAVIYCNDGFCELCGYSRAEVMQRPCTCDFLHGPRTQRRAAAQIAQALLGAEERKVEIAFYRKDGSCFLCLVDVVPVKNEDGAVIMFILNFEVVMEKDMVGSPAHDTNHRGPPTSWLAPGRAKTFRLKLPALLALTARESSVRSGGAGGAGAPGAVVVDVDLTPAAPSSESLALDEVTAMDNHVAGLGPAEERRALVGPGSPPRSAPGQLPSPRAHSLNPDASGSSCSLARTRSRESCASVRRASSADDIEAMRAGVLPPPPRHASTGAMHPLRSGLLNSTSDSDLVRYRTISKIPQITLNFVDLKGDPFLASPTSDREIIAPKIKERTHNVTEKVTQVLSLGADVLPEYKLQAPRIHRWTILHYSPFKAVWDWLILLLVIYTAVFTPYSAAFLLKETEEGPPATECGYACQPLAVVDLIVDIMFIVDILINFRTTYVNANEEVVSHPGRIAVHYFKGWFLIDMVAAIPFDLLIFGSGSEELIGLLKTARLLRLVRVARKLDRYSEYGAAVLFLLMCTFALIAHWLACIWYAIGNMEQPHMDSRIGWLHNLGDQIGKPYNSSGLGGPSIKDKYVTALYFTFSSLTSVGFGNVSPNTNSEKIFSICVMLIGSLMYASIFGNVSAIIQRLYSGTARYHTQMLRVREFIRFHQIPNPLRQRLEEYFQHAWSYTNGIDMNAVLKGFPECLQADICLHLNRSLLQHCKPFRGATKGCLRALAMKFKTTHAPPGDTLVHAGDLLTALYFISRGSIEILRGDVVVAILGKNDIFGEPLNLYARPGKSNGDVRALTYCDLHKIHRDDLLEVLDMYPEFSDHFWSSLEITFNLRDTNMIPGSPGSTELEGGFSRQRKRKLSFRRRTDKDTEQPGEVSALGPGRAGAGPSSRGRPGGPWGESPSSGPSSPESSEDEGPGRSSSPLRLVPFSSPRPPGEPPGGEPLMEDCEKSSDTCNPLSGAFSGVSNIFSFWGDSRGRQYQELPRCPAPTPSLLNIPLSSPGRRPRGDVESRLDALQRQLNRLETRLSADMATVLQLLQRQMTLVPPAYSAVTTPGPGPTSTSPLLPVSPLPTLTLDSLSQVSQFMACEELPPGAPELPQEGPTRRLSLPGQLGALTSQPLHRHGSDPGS
Sequence of CYP2A6 (P11509 whole entry): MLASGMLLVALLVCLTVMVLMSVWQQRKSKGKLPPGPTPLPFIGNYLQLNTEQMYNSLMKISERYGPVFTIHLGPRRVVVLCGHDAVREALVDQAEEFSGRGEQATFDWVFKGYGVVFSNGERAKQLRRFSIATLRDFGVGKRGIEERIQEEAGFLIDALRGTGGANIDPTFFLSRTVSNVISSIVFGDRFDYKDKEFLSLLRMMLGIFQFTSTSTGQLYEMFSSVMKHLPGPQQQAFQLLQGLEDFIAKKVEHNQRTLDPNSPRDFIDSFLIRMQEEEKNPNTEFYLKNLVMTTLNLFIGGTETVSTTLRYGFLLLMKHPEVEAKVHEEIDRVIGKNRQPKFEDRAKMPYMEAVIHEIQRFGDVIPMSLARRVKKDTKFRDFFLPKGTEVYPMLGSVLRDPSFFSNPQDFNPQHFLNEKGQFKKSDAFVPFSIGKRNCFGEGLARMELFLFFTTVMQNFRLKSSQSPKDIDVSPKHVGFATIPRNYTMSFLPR

CO[C@H]1/C=C\C=C(/C)C(=O)NC2=CC(=O)C(NCCCCCC[P+](c3ccccc3)(c3ccccc3)c3ccccc3)=C(C[C@@H](C)C[C@H](OC)[C@H](O)[C@@H](C)/C=C(\C)[C@@H]1OC(N)=O)C2=O [Gamitrinib, 17-Demethoxy-17-((6-(triphenylphosphonio)hexyl)amino)geldanamycin]
IC50 (CYP2A6): 24 µM
inhibition at 10 µM (hERG): 37.9 ± 1.7%
inhibition at 10 µM (Human HCN4): -0.2 ± 3.7%
Cmax [1, 3]: 87.1 ng/mL
AUC(0-t) [1, 3]: 174 ng·h/mL
Cmax ([1]; 10 mg/kg/dose (STD 10), d 29): 311 ng/mL
AUC(0-t) ([1]; 10 mg/kg/dose (STD 10), d 29): 1300 ng·h/mL
Vd ([1]; both sexes, in vivo, rats, 1, 10 or 25 mg/kg/dose IV twice weekly, d 4 and d 29, read-out: Vss): 12.2 to 90 L/kg
reduction in mean body weights (Sprague-Dawley rats; 10 mg/kg/dose IV twice weekly): −5.5%
reduction in mean body weights (Sprague-Dawley rats; 25 mg/kg/dose IV twice weekly): −5.7%
urinalysis or ophthalmic changes (Sprague-Dawley rats; rats): No effects
Gamitrinib-related clinical observations (Sprague-Dawley rats; rats administered 10 mg/kg/dose): inguinal swelling, piloerection, hypoactivity, and sensitivity to touch at the infusion site
microscopic findings at the infusion site (Sprague-Dawley rats; rats administered 10 mg/kg/dose (both sexes)): mixed cell inflammation at the catheter/infusion site
kidney histology (Sprague-Dawley rats; rats, 25 mg/kg/dose IV, 25 mg/kg): slight kidney tubule degeneration/regeneration; also recorded: marked kidney tubule degeneration/regeneration; also recorded: tubular degeneration/regeneration
serum urea nitrogen (UN) and creatinine concentrations (Sprague-Dawley rats; rats, 25 mg/kg/dose, 25 mg/kg): Minimally to mildly higher; also recorded: mild elevation of urea nitrogen
serum urea nitrogen (Sprague-Dawley rats; rats, >10 mg/kg/dose): mild elevation
no observed adverse effect level (NOAEL) (Sprague-Dawley rats; rats, IV twice weekly 29 d): 1 mg/kg/dose
severely toxic dose in 10% of the animals (STD 10) (Sprague-Dawley rats; rats, IV twice weekly 29 d): 10 mg/kg/dose
Alterations in clinical chemistry parameters (Sprague-Dawley rats; rats, highest Gamitrinib dose level tested): mildly to moderately higher neutrophil and platelet (Plts) counts, minimally prolonged partial thromboplastin time (PT), lower albumin, higher globulin, and alkaline phosphatase concentrations
drug accumulation (Sprague-Dawley rats; rats, Cmax and AUC0-24 similar on d 4 and d 29): no drug accumulation after multiple doses
Gamitrinib-related mortality (Sprague-Dawley rats; toxicity rats, 10 mg/kg/dose): one male
Gamitrinib-related mortality (Sprague-Dawley rats; toxicity rats, 25 mg/kg/dose): two males and one female
Gamitrinib-related mortality (Sprague-Dawley rats; toxicokinetic rats, 10 mg/kg/dose): two toxicokinetic females
Gamitrinib-related mortality (Sprague-Dawley rats; toxicokinetic rats, 25 mg/kg/dose): one toxicokinetic female
ECG changes in PR interval, QRS duration, QT interval, or heart rate (beagle dogs; d 32 of dosing at 1.25, 3.33 or 6.25 mg/kg/dose, d 11 of recovery at 6.25): No Gamitrinib-related ECG changes
rhythm abnormalities or qualitative ECG changes (beagle dogs; dogs): No other rhythm abnormalities or qualitative ECG changes were observed
prolongation of QTc interval (beagle dogs; female dogs 6.25 mg/kg/dose, both sexes 1.25 or 3.33 mg/kg/dose): No Gamitrinib-related prolongation of QTc interval
prolongation of QTc interval (beagle dogs; one out of 5 male dogs at 6.25 mg/kg/dose, d 32 of dosing): 17 ms
prolongation of QTc interval (beagle dogs; one out of 5 male dogs at 6.25 mg/kg/dose, d 32 of dosing, reversed in recovery): 7%
IC50 (tumor cells): 1 to 4 µM
IC50 (NCI 60 cell lines): 0.16 to 29 µM
elimination rate constant (k) ([2]; 0.5 μM, human liver microsomes): 0.041
intrinsic clearance (CLint) ([2]; 0.5 μM, human liver microsomes): 3.30 mL/min/g
half-life at 0.5 μM ([2]; human, liver microsomes): 16.7 min
